Assay results published in patent US9517225B2, “Low dose lipoic acid pharmaceutical compositions and methods” (ENCORE HEALTH, LLC, priority 2008, dated 2016).

How the values were obtained:
Type in all cases: cell-based
[1] = system: protein disulfides in the mouse lenses; test: Decrease in disulfide bonds: protein SH/SS in lens homogenates by fluorescent alkylation; settings: FIG. 5, p≦0.05 vs control
Description: FIG. 5 depicts a scattergram of the percent of the total protein SH groups in disulfide bonds. Free SH groups were alkylated with 4-acetamido-4′-maleimidylstilbene-2,2′-sulfonic acid (c, 1 μM, 5 μM, 9.6 μM, 50 μM, 96 μM) or 7-diethylamino-3-(4′maleimidylphenyl)-4-methyl coumarin (500 μM, and 500 μM c). Following removal of the first alkylating agent, the S—S bonds were reduced and alkylated with fluorescein-5-maleimide. Absorption spectra were used to calculated total protein (A280 nm), free protein SH (A322 or A384), and protein SS (A490) using the appropriate extinction coefficients. The symbol ‡ indicates statistically significant difference of mean with mean of control (c, p≦0.05).
Mouse lenses were homogenized in a denaturing buffer containing a fluorescent alkylating agent to modify the free SH groups. After removing the alkylating agent homogenates were reduced and alkylated with a different fluorescent alkylating agent. Absorption spectra of the modified proteins were used to calculate free protein SH and protein SS groups.

[2] = system: human umbilical vein endothelial cells (HUVEC, first passage); test: In vitro toxicology: cell viability, MultiTox-Fluor or Live/Dead assay; settings: doses ranging from 0.1 μM to 100 μM
Description: Cell viability was determined using human umbilical vein endothelial cells (HUVEC, first passage). Cells were treated with the active agent in doses ranging from 0.1 μM to 100 μM. The number of live and dead cells was determined using the MultiTox-Fluor assay (Promega) or Live/Deadly® assay (Invitrogen). Logistic plots were used to determine the compound's LD50 value. Lipoic acid was not cytotoxic in the concentration range.

mouse lenses = test: Increase in elasticity: lens organ culture, change in lens diameter under coverslip (ΔD); settings: mouse lenses incubated 8-15 hours, 0.5 μM to 500 μM tested, p<0.0001
From the text: FIG. 4 depicts a scatter plot of the change in ΔD (micrometers) in the absence (control) and presence of lipoic acid in lens organ culture experiments. […] Statistical values are highly significant at p<0.0001 by unpaired t-test and by Kruskal Wallis test, which compared medians of each data set. The relative change in Young's modulus (E) can be calculated as the cubic value derived from the ΔD of the control divided by the ΔD of the experimental or E fractional change=(ΔD con/ΔDexp)^3.
Increase in Elasticity: Pairs of mouse lenses were incubated in medium 200 supplemented with an antibiotic, an antimycotic, in the presence or absence of lipoic acid (concentrations ranging from 0.5 μM to 500 μM) for 8-15 hours. Each lens was removed from medium, weighed, and photographed on a micrometer scale. A coverslip of known weight (0.17899±0.00200 g) was placed on the lens, and the lens was photographed again on the micrometer scale. The diameter of each lens with and without the coverslip was determined from the photographs. The change in lens diameter produced by the force (coverslip) was computed ΔD=(Dwithcoverslip−Dwithoutcoverslip).

Question: Which results are given for `O=C(O)CCCCC1CCSS1` (stereo not drawn) [lipoic acid, 5-(1,2-dithiolan-3-yl)pentanoic acid]?
Answer: concentrations causing a statistically significant decrease in protein disulfides [1]: ≥ 9.6 µM; cytotoxicity (live and dead cells) [2]: not cytotoxic; concentrations causing a statistically significant increase in ΔD (mouse lenses): ≥ 9.6 µM
